Activity calls are given as the source filed them. Bounds are passed on as bounds.

Series [1] has as its target T1, Prostaglandin E2 receptor EP4 subtype (Homo sapiens, UniProt P35408). In words: Partial agonist activity at human EP4 receptor expressed in HEK293-AEQ17 cells assessed as cAMP accumulation by aequorin luminescence assay. The series is classed as functional, cell-based. On the technique in general: Changes in cAMP serve as a functional read-out for many G protein-coupled receptors.

The target in series [2] is T1, Prostaglandin E2 receptor EP4 subtype. The series can be described thus: Displacement of [3H]PGE2 from human EP4 receptor expressed in HEK 293 (EBNA) cell membranes incubated for 60 mins by scintillation counting method. Background: In a radioligand displacement assay an active substance lowers the binding of a labelled ligand.
Series [3] relates to Rattus norvegicus. The series can be described thus: Analgesic activity in rat model of Freund's complete adjuvant-induced acute inflammatory pain assessed as reversal of FCA-induced hypersensitivity at 10 mg/kg, po relative to untreated control. The series is classed as functional.
A short description of series [4]: Half life in rat at 1 mg/kg, po. The series is classed as ADME, organism-based. The following applies: in vivo.
Series [5] has as its system Rattus norvegicus. In words: Analgesic activity in rat model of Freund's complete adjuvant-induced acute inflammatory pain assessed as reversal of FCA-induced hypersensitivity at 3 mg/kg, po relative to untreated control. The series is classed as functional.
Series [6] deals with Rattus norvegicus. In words: Analgesic activity in orally dosed rat model of Freund's complete adjuvant-induced acute inflammatory pain assessed as reversal of FCA-induced hypersensitivity. The following applies: po. The series is classed as functional.
The subject of series [7] is Rattus norvegicus. In words: Volume of distribution at steady state in rat at 1 mg/kg, […]. The series is classed as ADME, organism-based. The conditions noted are these: in vivo.
Series [8] deals with Rattus norvegicus. In words: Analgesic activity in rat model of Freund's complete adjuvant-induced acute inflammatory pain assessed as reversal of FCA-induced hypersensitivity at 10 mg/kg, po pre-challenged with 3 mg/kg, po selective EP4 antagonist GW627368X. The series is classed as functional, organism-based.
Series [9] can be described thus: Total drug level in blood of orally dosed rat model of Freund's complete adjuvant-induced acute inflammatory pain assessed as reduction in reversal of hypersensitivity. The series is classed as ADME, organism-based. The following applies: in vivo, po, read-out: Drug uptake.
Series [10] is described as follows: Blood clearance in rat at 1 mg/kg, po. The series is classed as ADME, organism-based.
The subject of series [11] is Rattus norvegicus. In words: Analgesic activity in rat model of chronic joint pain assessed as reversal of pain by measuring weight bearing level at 30 mg/kg, po dosed twice daily for 5 days relative to untreated control. The conditions noted are these: 120 h, read-out: INH.
In series [12] the test system is Rattus norvegicus. The series can be described thus: Analgesic activity in rat model of chronic constriction injury-induced neuropathic pain assessed as reversal of mechanical allodynia at 30 mg/kg dosed twice daily for 8 days relative to untreated control. The following applies: 192 h. The series is classed as functional.
Series [13] can be described thus: Intrinsic clearance in rat liver microsomes. The series is classed as ADME, microsome.
In the next series the target is Cytochrome P450 2C9 (Homo sapiens, UniProt P11712). In words: Inhibition of human recombinant CYP2C9. The series is classed as ADME.
Cytochrome P450 2C9, sequence (P11712 whole entry): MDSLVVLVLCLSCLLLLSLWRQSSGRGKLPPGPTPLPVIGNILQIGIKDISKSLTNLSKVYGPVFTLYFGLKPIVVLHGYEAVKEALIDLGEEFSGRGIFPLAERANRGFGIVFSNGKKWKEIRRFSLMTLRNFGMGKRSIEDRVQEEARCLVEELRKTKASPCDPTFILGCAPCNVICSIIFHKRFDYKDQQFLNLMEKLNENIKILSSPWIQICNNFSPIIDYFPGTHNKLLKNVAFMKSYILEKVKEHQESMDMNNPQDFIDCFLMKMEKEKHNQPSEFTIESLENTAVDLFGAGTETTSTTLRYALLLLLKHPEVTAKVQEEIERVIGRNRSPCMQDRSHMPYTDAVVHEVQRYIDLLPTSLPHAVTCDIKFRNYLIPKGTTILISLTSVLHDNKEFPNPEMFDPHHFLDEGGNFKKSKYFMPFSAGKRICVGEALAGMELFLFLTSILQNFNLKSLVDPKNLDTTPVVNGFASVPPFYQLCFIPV
In series [14] the target is T2, Cytochrome P450 3A4 (Homo sapiens, UniProt P08684). The series can be described thus: Inhibition of human recombinant CYP3A4 using 7BQ substrate. The series is classed as ADME.
T2 sequence (P08684 whole entry): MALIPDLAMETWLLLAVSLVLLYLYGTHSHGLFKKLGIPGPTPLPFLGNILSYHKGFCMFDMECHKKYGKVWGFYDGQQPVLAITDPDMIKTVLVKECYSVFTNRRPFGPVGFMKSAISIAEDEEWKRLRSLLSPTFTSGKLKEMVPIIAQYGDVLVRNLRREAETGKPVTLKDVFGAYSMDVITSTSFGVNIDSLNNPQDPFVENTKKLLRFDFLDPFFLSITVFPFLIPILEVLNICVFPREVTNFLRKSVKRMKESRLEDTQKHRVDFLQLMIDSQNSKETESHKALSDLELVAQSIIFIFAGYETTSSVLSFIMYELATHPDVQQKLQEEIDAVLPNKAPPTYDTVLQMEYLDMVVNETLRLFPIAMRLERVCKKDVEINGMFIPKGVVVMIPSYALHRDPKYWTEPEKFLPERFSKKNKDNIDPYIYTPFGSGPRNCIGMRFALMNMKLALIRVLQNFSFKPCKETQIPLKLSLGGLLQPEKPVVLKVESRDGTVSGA
Series [15] is described as follows: Intrinsic clearance in human liver microsomes. The series is classed as ADME, microsome. (Microsomes from liver hold many membrane-bound enzymes, among them those of drug oxidation.)
The next series concerns the target Cytochrome P450 2D6 (Homo sapiens, UniProt P10635). The series can be described thus: Inhibition of human recombinant CYP2D6. The series is classed as ADME.
For the next series, the target named is Cytochrome P450 2C19 (Homo sapiens, UniProt P33261). The series can be described thus: Inhibition of human recombinant CYP2C19. The series is classed as ADME.
Cytochrome P450 2C19, sequence (P33261 whole entry): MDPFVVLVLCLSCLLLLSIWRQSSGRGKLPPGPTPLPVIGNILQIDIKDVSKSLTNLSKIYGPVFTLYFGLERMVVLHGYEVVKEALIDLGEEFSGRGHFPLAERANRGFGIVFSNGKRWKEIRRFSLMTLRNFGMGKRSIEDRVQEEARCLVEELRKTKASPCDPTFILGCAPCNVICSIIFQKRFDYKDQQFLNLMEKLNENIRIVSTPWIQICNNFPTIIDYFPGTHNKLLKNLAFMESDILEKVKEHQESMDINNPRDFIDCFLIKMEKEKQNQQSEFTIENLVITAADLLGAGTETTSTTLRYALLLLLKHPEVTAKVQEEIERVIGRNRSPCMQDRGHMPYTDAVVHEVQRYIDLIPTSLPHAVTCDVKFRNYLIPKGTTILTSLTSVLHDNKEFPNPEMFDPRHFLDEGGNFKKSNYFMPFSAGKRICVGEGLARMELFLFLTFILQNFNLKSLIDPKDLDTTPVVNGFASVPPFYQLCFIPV
A further series addresses T3, Cytochrome P450 1A2 (Homo sapiens, UniProt P05177).
T3 sequence (P05177 whole entry): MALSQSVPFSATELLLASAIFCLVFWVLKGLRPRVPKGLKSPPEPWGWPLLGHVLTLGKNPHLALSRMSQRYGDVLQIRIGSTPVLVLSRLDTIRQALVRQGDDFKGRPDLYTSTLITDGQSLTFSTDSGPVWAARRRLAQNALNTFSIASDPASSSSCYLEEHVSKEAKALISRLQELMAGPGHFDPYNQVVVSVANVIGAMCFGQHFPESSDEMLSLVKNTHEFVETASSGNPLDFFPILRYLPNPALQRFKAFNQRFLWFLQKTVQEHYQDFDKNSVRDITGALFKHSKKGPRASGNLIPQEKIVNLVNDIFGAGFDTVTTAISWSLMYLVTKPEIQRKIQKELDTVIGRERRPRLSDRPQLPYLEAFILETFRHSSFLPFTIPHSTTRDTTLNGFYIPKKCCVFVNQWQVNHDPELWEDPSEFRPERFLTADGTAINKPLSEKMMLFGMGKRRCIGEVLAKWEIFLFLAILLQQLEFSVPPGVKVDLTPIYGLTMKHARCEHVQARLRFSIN
In words: Inhibition of human recombinant CYP1A2. The series is classed as ADME.

Series [16] has as its target T2, Cytochrome P450 3A4. In words: Inhibition of human recombinant CYP3A4 using DEF substrate. The series is classed as ADME.

T1 sequence (P35408 whole entry): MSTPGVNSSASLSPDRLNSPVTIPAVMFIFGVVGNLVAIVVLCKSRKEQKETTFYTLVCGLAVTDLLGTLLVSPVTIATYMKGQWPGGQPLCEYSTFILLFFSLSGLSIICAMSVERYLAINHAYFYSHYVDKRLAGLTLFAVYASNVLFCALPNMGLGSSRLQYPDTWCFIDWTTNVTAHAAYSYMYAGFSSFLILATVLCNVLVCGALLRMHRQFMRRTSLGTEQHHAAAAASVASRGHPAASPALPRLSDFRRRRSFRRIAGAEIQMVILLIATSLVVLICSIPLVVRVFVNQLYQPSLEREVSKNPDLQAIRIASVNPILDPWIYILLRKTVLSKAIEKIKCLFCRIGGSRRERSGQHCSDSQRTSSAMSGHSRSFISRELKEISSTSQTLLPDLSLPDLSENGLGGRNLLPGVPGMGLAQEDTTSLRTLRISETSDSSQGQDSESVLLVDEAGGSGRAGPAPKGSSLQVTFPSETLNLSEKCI
Cytochrome P450 2D6, sequence (P10635 whole entry): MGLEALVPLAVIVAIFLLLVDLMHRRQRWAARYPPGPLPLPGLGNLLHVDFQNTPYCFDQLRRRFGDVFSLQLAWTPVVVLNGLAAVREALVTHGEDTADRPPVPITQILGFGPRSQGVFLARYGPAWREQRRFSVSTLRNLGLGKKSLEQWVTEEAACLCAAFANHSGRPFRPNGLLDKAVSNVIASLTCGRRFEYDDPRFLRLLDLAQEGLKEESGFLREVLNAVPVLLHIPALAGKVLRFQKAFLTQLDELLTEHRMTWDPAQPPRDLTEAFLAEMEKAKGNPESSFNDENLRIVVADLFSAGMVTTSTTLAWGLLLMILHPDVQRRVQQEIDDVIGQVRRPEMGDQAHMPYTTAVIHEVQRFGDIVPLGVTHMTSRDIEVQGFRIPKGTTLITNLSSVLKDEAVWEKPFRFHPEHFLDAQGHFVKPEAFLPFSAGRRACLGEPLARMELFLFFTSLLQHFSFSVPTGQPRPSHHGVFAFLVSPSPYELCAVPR

Regarding `CCOc1c2c(c(OCC)c3ncccc13)C(=O)N(c1ccc(CC(=O)O)cc1)C2=O`, in series [1], the EC50 (commonly the concentration needed to bring the measured effect to its halfway point) is more than 1000 nM. Also, in series [2], the Ki (in general, a dissociation constant, usually derived from enzyme kinetics or from competition with a known ligand) is 31.6 nM.
For `CCOc1c2c(c(OCC)c3cc(C)ccc13)C(=O)N(c1ccc(CC(=O)O)cc1)C2=O`, the concentration for a half-maximal effect (EC50) in series [1] was 20 nM. Also, in the series on Rattus norvegicus [3], the Activity is 76%. Also, the half-life (as a rule, the time needed for the level to fall by half in the phase considered) in [4] was 31.7 h. For the same compound, in series [2], the Ki is 158 nM.
As for `CCOc1c2c(c(OCC)c3ccccc13)C(=O)N(c1ccc(CC(=O)O)c(Cl)c1)C2`, the EC50 in series [1] was more than 1000 nM.
Consider `CCOc1c2c(c(OCC)c3ccccc13)CN(c1ccc(CC(=O)O)cc1)C2`, for which the EC50 in series [1] is 251 nM. The affinity in series [2] corresponds to a Ki of 631 nM.
Turning to `CCCCCCOc1c2c(c(OCCCCCC)c3ccccc13)C(=O)N(c1ccc(CC(=O)O)cc1)C2`, the 50% effective concentration (EC50) in [1] was more than 1000 nM. This compound also gave a Ki in [2] of more than 6310 nM.
On to `CCOc1c2c(c(OCC)c3ccccc13)C(=O)N(c1ccc(CC(=O)O)cc1Br)C2`, for which the concentration for a half-maximal effect (EC50) in series [1] was 5.01 nM. The Activity in the series on Rattus norvegicus [3] was determined as 47%.
Turning to `CCOc1c2c(c(OCC)c3ccccc13)C(=O)N(c1ccc(CC(=O)O)cc1Cl)C2`, in series [1], the concentration giving a half-maximal response (EC50) is 5.01 nM. Besides, the Activity with Rattus norvegicus [5] is given as 14%.
Take `CCCCOc1c2c(c(OCCCC)c3ccccc13)C(=O)N(c1ccc(CC(=O)O)cc1)C2`: the 50% effective concentration (EC50) in series [1] is 200 nM. This compound also gave an inhibition constant (Ki) in series [2] of 2000 nM.
`CCOc1c2c(c(OCC)c3ccccc13)C(=O)N(c1ccc(CC(=O)O)c(C)c1)C2`: the 50% effective concentration (EC50) in series [1] was more than 1000 nM.
Turning to `CCOc1c2c(c(OCC)c3ccccc13)C(=O)N(c1ccc(CC(=O)O)cc1C(F)(F)F)C2`, the concentration for a half-maximal effect (EC50) in [1] was 50.1 nM.
Still for that read-out and setting: next, `CCOc1c2c(c(OCC)c3cc(F)ccc13)C(=O)N(c1ccc(CC(=O)O)cc1)C2=O`: 79.4 nM.
For the compound `CCOc1c2c(c(OCC)c3ccccc13)C(=O)N(c1ccc(CC(=O)O)cc1C)C2`, in series [1], the concentration giving a half-maximal response (EC50) was 7.94 nM. Besides, in the series on Rattus norvegicus [5], the Activity is 19%.
In the case of `COc1c2c(c(OC)c3ccccc13)C(=O)N(c1ccc(CC(=O)O)cc1)C2=O`, the concentration giving a half-maximal response (EC50) in series [1] is 200 nM.
Turning to `CCOc1c2c(c(OCC)c3ccccc13)C(=O)N(c1ccc(C(C)C(=O)O)cc1)C2` (stereo unspecified), the EC50 in [1] was more than 1000 nM. In series [2], this compound gave a Ki of 200 nM.
As to `CCOc1c2c(c(OCC)c3ccccc13)C(=O)N(c1ccc(CC(=O)O)cc1F)C2`, in [1], the EC50 was 3.98 nM. Moreover, the Activity with Rattus norvegicus [5] was 5%.
In the case of `CCOc1c2c(c(OCC)c3ccccc13)C(=O)N(c1ccc(CC(=O)O)cc1)C2`, the ED50 (commonly the midpoint of the dose-response relation) in the series on Rattus norvegicus [6] was determined as 1.5 mg/kg. Besides, the EC50 in [1] was 20 nM. In the series on Rattus norvegicus [7], this compound came in with a Vdss of 0.3 L/kg. For the same compound, in the series on Rattus norvegicus [8], the outcome was inactive. In [9], the concentration lay within 5 to 11 µM. Moreover, in [4], the half-life is 8.5 h. The apparent clearance (CL/F) (commonly clearance divided by bioavailability, as obtained after extravascular dosing) in [10] was found to be 0.6 mL/min/kg. Also, the Ki in [2] was 79.4 nM.
For `Cc1ccc(-c2cc(C(F)(F)F)nn2-c2ccc(S(N)(=O)=O)cc2)cc1` [CELECOXIB], the inhibition in vivo at 30 mg/kg in the series with Rattus norvegicus [11] is 100%. The outcome with Rattus norvegicus [3] was Active.
For the compound `CCOc1c2c(c(OCC)c3ccccc13)C(=O)N(c1ccc(CC(=O)O)cc1OC)C2`, the EC50 in series [1] is 10 nM.
Turning to `NCC1(CC(=O)O)CCCCC1` [GABAPENTIN], the inhibition in vivo at 30 mg/kg in the series on Rattus norvegicus [12] was determined as 100%.
On to `CC(C)Oc1c2c(c(OC(C)C)c3ccccc13)C(=O)N(c1ccc(CC(=O)O)cc1)C2`, for which the EC50 in series [1] is 39.8 nM. The Ki in series [2] was 398 nM.
In the same order, the values of `CCCOc1c2c(c(OCCC)c3ccccc13)C(=O)N(c1ccc(CC(=O)O)cc1)C2` are 126 nM and 631 nM.
In the case of `CCOc1c2c(c(OCC)c3ccccc13)C(=O)N(c1ccc(CC(=O)O)cc1)C2=O`, the CLH in [13] and in [15] was less than 0.5 mL/min/g throughout. Besides, the IC50 (in general, the concentration at which inhibition is half-maximal) on Cytochrome P450 2C9 was more than 100000 nM; on Cytochrome P450 3A4 [14] it was more than 100000 nM; at Cytochrome P450 2D6, 42000 nM; on Cytochrome P450 2C19, more than 100000 nM; on Cytochrome P450 1A2, 65000 nM; at Cytochrome P450 3A4 [16], more than 100000 nM. In addition, the EC50 in series [1] is 25.1 nM. In the series with Rattus norvegicus [7], this compound showed a Vdss of 0.28 L/kg. In addition, the half-life in series [4] is 19.9 h. Moreover, the CL/F in series [10] is 0.2 mL/min/kg. This compound had a Ki in series [2] of 158 nM.

Values taken from ChEMBL document CHEMBL4219215, “Discovery of {4-[4,9-bis(ethyloxy)-1-oxo-1,3-dihydro-2H-benzo[f]isoindol-2-yl]-2-fluorophenyl}acetic acid (GSK726701A), a novel EP4 receptor partial agonist for the treatment of pain” (Bioorg Med Chem Lett, 2018).
